From ChEMBL document CHEMBL1133839, “A new class of antiarrhythmic-defibrillatory agents” (2001)

Key:
Type in all cases: functional
Felis catus [1] = assay: Evaluated for its relative defibrillating activity in male cats 10 min after injection at concentration 1 mg/Kg
Felis catus [2] = assay: Evaluated for its relative defibrillating activity in male cats 10 min after injection at concentration 2 mg/Kg
Felis catus [3] = assay: Evaluated for its relative defibrillating activity in male cats 10 min after injection at concentration 3 mg/Kg
Felis catus [4] = assay: Evaluated for its relative defibrillating activity in male cats 10 min after injection at 0.5 mg/Kg
Felis catus [5] = assay: Evaluated for its relative defibrillating activity in male cats 10 min after injection at 1 mg/Kg
Felis catus [6] = assay: Evaluated for its relative defibrillating activity in male cats 10 min after injection at 2 mg/Kg
Felis catus [7] = assay: Evaluated for its relative defibrillating activity in male cats 10 min after injection at 3 mg/Kg
Felis catus [8] = assay: Evaluated for its relative defibrillating activity in male cats 10 min after injection at concentration 0.5 mg/Kg

Compound | Relative activity (Felis catus [1]) [%] | Relative activity (Felis catus [2]) [%] | Relative activity (Felis catus [3]) [%] | Relative activity (Felis catus [4]) [%] | Relative activity (Felis catus [5]) [%] | Relative activity (Felis catus [6]) [%] | Relative activity (Felis catus [7]) [%] | Relative activity (Felis catus [8]) [%]
CC(C)CNCCC(=O)N1c2ccccc2CCc2ccccc21.Cl | 0 | 0 | 0 |  |  |  |  | 
CCNCCC(=O)N1c2ccccc2CCc2ccccc21.Cl |  |  |  | 0 | 50 | 75 | 100 | 
CC(C)NCCC(=O)N1c2ccccc2NC(=O)c2ccccc21.Cl |  | 0 | 0 |  |  |  |  | 
CC(C)NC[C@@H](O)CN1c2ccccc2CCc2ccccc21.Cl | 50 | 100 |  |  |  |  |  | 50
CN(C)CCCN1c2ccccc2CCc2ccccc21 [IMIPRAMINE] | 0 | 50 | 75 |  |  |  |  | 
CNCCCN1c2ccccc2CCc2ccccc21 [DESIPRAMINE] | 25 | 75 | 100 |  |  |  |  | 
CC(C)NC[C@H](O)CN1c2ccccc2CCc2ccccc21.Cl | 100 | 100 |  |  |  |  |  | 75
CC(C)NCCC(=O)N1c2ccccc2CCc2ccccc21.Cl | 75 | 100 |  |  |  |  | 100 | 25
CNCCC(=O)N1c2ccccc2CCc2ccccc21.Cl |  |  |  | 0 | 25 | 100 | 100 | 
CC(C)(C)NCCC(=O)N1c2ccccc2CCc2ccccc21.Cl | 50 | 100 | 100 |  |  |  |  | 
CNCCC(=O)N1c2ccccc2NC(=O)c2ccccc21.Cl | 0 | 0 | 0 |  |  |  |  | 
CCC(C)NCCC(=O)N1c2ccccc2CCc2ccccc21.Cl (configuration not stated) | 0 | 0 | 0 |  |  |  |  | 
CCNCCC(=O)N1c2ccccc2NC(=O)c2ccccc21.Cl |  | 0 | 0 |  |  |  |  | 
Cl.O=C(CCNCc1ccccc1)N1c2ccccc2CCc2ccccc21 | 0 | 0 | 0 |  |  |  |  | 
CC(C)NCC(O)CN1c2ccccc2CCc2ccccc21.Cl (configuration not stated) | 50 | 100 | 100 |  |  |  |  | 50
